# Measurements published in US6737383B1, “Herbicidal oxadiazolidines” (priority 1999, dated 2004).
# Columns and labels:
# [1] = test system: bedstraw; test: Test B pre/postemergence bedstraw; assay type: in vivo, Galium aparine; conditions: Preemergence
# Method in brief: (§1)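 Response is a visual 0-to-10 score relative to untreated plants, where 0 means no effect and 10 means complete control, taken twelve to sixteen days after application. Treatments went onto soil at planting and onto foliage of 1- to 4-leaf plants, using a surfactant-containing non-phytotoxic solvent.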
# [2] = test system: blackgrass; test: Test B pre/postemergence blackgrass; assay type: in vivo, Alopecurus myosuroides
# Method in brief: as §1
# [3] = test system: surinam grass; test: Test B pre/postemergence surinam grass; assay type: in vivo, Brachiaria decumbens
# Method in brief: as §1
# [4] = test system: cocklebur; test: Test B pre/postemergence cocklebur; assay type: in vivo, Xanthium strumarium
# Method in brief: as §1
# [5] = test system: corn; test: Test B pre/postemergence corn; assay type: in vivo, Zea mays
# Method in brief: as §1
# [6] = test system: crabgrass; test: Test B pre/postemergence crabgrass; assay type: in vivo, Digitaria sanguinalis
# Method in brief: as §1
# [7] = test system: giant foxtail; test: Test B pre/postemergence giant foxtail; assay type: in vivo, Setaria faberii
# Method in brief: as §1
# [8] = test system: morningglory; test: Test B pre/postemergence morningglory; assay type: in vivo, Ipomoea hederacea
# Method in brief: as §1
# [9] = test system: pigweed; test: Test B pre/postemergence pigweed; assay type: in vivo, Amaranthus retroflexus; conditions: for Plant response rating, Redroot pigweed: Postemergence
# Method in brief: as §1
# [10] = test system: rape; test: Test B pre/postemergence rape; assay type: in vivo, Brassica napus
# Method in brief: as §1
# [11] = test system: soybean; test: Test B pre/postemergence soybean; assay type: in vivo, Glycine max; conditions: for Plant response rating, Soybean: Postemergence
# Method in brief: as §1
# [12] = test system: sugar beet; test: Test B pre/postemergence sugar beet; assay type: in vivo, Beta vulgaris
# Method in brief: as §1
# [13] = test system: velvetleaf; test: Test B pre/postemergence velvetleaf; assay type: in vivo, Abutilon theophrasti; conditions: for Plant response rating, Velvetleaf: Postemergence
# Method in brief: as §1
# [14] = test system: wheat; test: Test B pre/postemergence wheat; assay type: in vivo, Triticum aestivum; conditions: for Plant response rating, Wheat: Postemergence
# Method in brief: as §1
# [15] = test system: wild oat; test: Test B pre/postemergence wild oat; assay type: in vivo, Avena fatua; conditions: for Plant response rating, Wild oats: Postemergence
# Method in brief: as §1
# [16] = test system: purple nutsedge; test: Test B pre/postemergence purple nutsedge; assay type: in vivo, Cyperus rotundus
# Method in brief: as §1
# [17] = Rate 500 g/ha, scale of 0 to 10 where 0 is no effect and 10 is complete control
# [18] = Postemergence, Rate 62 g/ha, scale of 0 to 10, 0 is no effect, 10 is complete control
# [19] = Postemergence, Rate 125 g/ha, scale 0 to 10, 0 is no effect, 10 is complete control
# [20] = Postemergence, Rate 500 g/ha, scale of 0 to 10 where 0 is no effect and 10 is complete control
# [21] = Preemergence, Rate 62 g/ha, scale 0 to 10 (0 no effect, 10 complete control)
# [22] = Preemergence, Rate 125 g/ha, scale 0 to 10, 0 is no effect, 10 is complete control
# [23] = Preemergence, Rate 500 g/ha, scale of 0 to 10 where 0 is no effect and 10 is complete control
# [24] = Rate 250 g/ha, Postemergence, scale of 0 to 10 where 0 is no effect and 10 is complete control
# [25] = Rate 250 g/ha, scale of 0 to 10 where 0 is no effect and 10 is complete control
compound,measurement,setting,value
CC(Cl)=CCn1c(=O)on(C(=O)N(c2ccccc2)C(C)C)c1=O [Compound 573],Bedstraw plant response rating,"[1]; Rate 62 g/ha, scale 0 to 10 (0 no effect, 10 complete control)",0
same,Bedstraw plant response rating,"[1]; Rate 125 g/ha, scale 0 to 10, 0 is no effect, 10 is complete control",0
same,Bedstraw plant response rating (0 to 10 scale),[1]; Rate 250 g/ha,0
same,Bedstraw plant response rating,[1]; [17],0
same,Blackgrass plant response rating,[2]; [18],0
same,Blackgrass plant response rating,[2]; [19],0
same,"Plant response rating, Blackgrass",[2]; [20],0
same,Blackgrass plant response rating,[2]; [21],0
same,Blackgrass plant response rating,[2]; [22],0
same,Blackgrass plant response rating (0 to 10 scale),"[2]; Preemergence, Rate 250 g/ha",2
same,Blackgrass plant response rating,[2]; [23],6
same,"Plant response rating, Blackgrass",[2]; [24],0
same,B. signalgrass plant response rating,[3]; [18],0
same,B. signalgrass plant response rating,[3]; [19],0
same,"Plant response rating, B. signalgrass",[3]; [20],0
same,B. signalgrass plant response rating,[3]; [21],7
same,B. signalgrass plant response rating,[3]; [22],7
same,"B. signalgrass plant response rating (0 to 10 scale, 0 is no effect, 10 is complete control)","[3]; Preemergence, Rate 250 g/ha",9
same,B. signalgrass plant response rating,[3]; [23],10
same,"Plant response rating, B. signalgrass",[3]; [24],0
same,Cocklebur plant response rating,[4]; [18],0
same,Cocklebur plant response rating,[4]; [19],0
same,"Plant response rating, Cocklebur",[4]; [20],3
same,Cocklebur plant response rating,[4]; [21],0
same,Cocklebur plant response rating,[4]; [22],0
same,Cocklebur plant response rating (0 to 10 scale),"[4]; Preemergence, Rate 250 g/ha",0
same,Cocklebur plant response rating,[4]; [23],0
same,"Plant response rating, Cocklebur",[4]; [24],2
same,Corn plant response rating,[5]; [18],0
same,Corn plant response rating,[5]; [19],0
same,"Plant response rating, Corn",[5]; [20],0
same,Corn plant response rating,[5]; [21],0
same,Corn plant response rating,[5]; [22],0
same,Corn plant response rating (0 to 10 scale),"[5]; Preemergence, Rate 250 g/ha",0
same,Corn plant response rating,[5]; [23],3
same,"Plant response rating, Corn",[5]; [24],0
same,Crabgrass plant response rating,[6]; [18],6
same,Crabgrass plant response rating,[6]; [19],9
same,"Plant response rating, Crabgrass",[6]; [20],9
same,Crabgrass plant response rating,[6]; [21],3
same,Crabgrass plant response rating,[6]; [22],9
same,Crabgrass plant response rating (0 to 10 scale),"[6]; Preemergence, Rate 250 g/ha",9
same,Crabgrass plant response rating,[6]; [23],10
same,"Plant response rating, Crabgrass",[6]; [24],9
same,Giant foxtail plant response rating,[7]; [18],2
same,Giant foxtail plant response rating,[7]; [19],3
same,"Plant response rating, Giant foxtail",[7]; [20],9
same,Giant foxtail plant response rating,[7]; [21],9
same,Giant foxtail plant response rating,[7]; [22],9
same,Giant foxtail plant response rating (0 to 10 scale),"[7]; Preemergence, Rate 250 g/ha",9
same,Giant foxtail plant response rating,[7]; [23],10
same,"Plant response rating, Giant foxtail",[7]; [24],9
same,Morningglory plant response rating,[8]; [18],10
same,Morningglory plant response rating,[8]; [19],10
same,"Plant response rating, Morningglory",[8]; [20],10
same,Morningglory plant response rating,[8]; [21],0
same,Morningglory plant response rating,[8]; [22],0
same,Morningglory plant response rating (0 to 10 scale),"[8]; Preemergence, Rate 250 g/ha",0
same,Morningglory plant response rating,[8]; [23],4
same,"Plant response rating, Morningglory",[8]; [24],10
same,"Plant response rating, Redroot pigweed",[9]; [17],7
same,Redroot pigweed plant response rating,[9]; [21],0
same,Redroot pigweed plant response rating,[9]; [22],0
same,Redroot pigweed plant response rating (0 to 10 scale),"[9]; Preemergence, Rate 250 g/ha",9
same,Redroot pigweed plant response rating,[9]; [23],9
same,"Plant response rating, Redroot pigweed",[9]; [25],4
same,Rape plant response rating,[10]; [18],0
same,Rape plant response rating,[10]; [19],2
same,"Plant response rating, Rape",[10]; [20],2
same,Rape plant response rating,[10]; [21],2
same,Rape plant response rating,[10]; [22],2
same,Rape plant response rating (0 to 10 scale),"[10]; Preemergence, Rate 250 g/ha",3
same,Rape plant response rating,[10]; [23],3
same,"Plant response rating, Rape",[10]; [24],3
same,"Plant response rating, Soybean",[11]; [17],6
same,Soybean plant response rating,[11]; [21],0
same,Soybean plant response rating,[11]; [22],0
same,Soybean plant response rating (0 to 10 scale),"[11]; Preemergence, Rate 250 g/ha",0
same,Soybean plant response rating,[11]; [23],0
same,"Plant response rating, Soybean",[11]; [25],4
same,Sugarbeets plant response rating,[12]; [21],0
same,Sugarbeets plant response rating,[12]; [22],2
same,Sugarbeets plant response rating (0 to 10 scale),"[12]; Preemergence, Rate 250 g/ha",2
same,Sugarbeets plant response rating,[12]; [23],2
same,"Plant response rating, Sugarbeets",[12]; [24],0
same,"Plant response rating, Velvetleaf",[13]; [17],2
same,Velvetleaf plant response rating,[13]; [21],0
same,Velvetleaf plant response rating,[13]; [22],0
same,Velvetleaf plant response rating (0 to 10 scale),"[13]; Preemergence, Rate 250 g/ha",0
same,Velvetleaf plant response rating,[13]; [23],3
same,"Plant response rating, Velvetleaf",[13]; [25],0
same,"Plant response rating, Wheat",[14]; [17],0
same,Wheat plant response rating,[14]; [21],0
same,Wheat plant response rating,[14]; [22],0
same,Wheat plant response rating (0 to 10 scale),"[14]; Preemergence, Rate 250 g/ha",0
same,Wheat plant response rating,[14]; [23],0
same,"Plant response rating, Wheat",[14]; [25],0
same,"Plant response rating, Wild oats",[15]; [17],0
same,Wild oats plant response rating,[15]; [21],0
same,Wild oats plant response rating,[15]; [22],0
same,Wild oats plant response rating (0 to 10 scale),"[15]; Preemergence, Rate 250 g/ha",0
same,Wild oats plant response rating,[15]; [23],0
same,"Plant response rating, Wild oats",[15]; [25],0
same,Nutsedge plant response rating,[16]; [18],0
same,Nutsedge plant response rating,[16]; [19],0
same,Nutsedge plant response rating,[16]; [21],0
same,Nutsedge plant response rating,[16]; [22],0
same,Nutsedge plant response rating (0 to 10 scale),"[16]; Preemergence, Rate 250 g/ha",0
same,Nutsedge plant response rating,[16]; [23],0
same,"Plant response rating, Nutsedge",[16]; [24],0
